Measurements as given in ChEMBL document CHEMBL1201861, “Genomics of Drug Sensitity in Cancer screening data, Wellcome Trust Sanger Institute”.

Columns and labels:
Assay in all cases: cells
Settings in all cases: Homo sapiens
[1] = tested on: COLO-741; type: functional, cell-based
Description: SANGER: Inhibition of human COLO-741 cell growth in a cell viability assay.

[2] = tested on: COLO-824; type: functional, cell-based
Description: SANGER: Inhibition of human COLO-824 cell growth in a cell viability assay.

[3] = tested on: DMS-79; type: functional, cell-based;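 note: growth inhibition measured with a cell viability assay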
Description: SANGER: Inhibition of human DMS-79 cell growth in a cell viability assay.

[4] = tested on: DU-4475; type: functional, cell-based
Description: SANGER: Inhibition of human DU-4475 cell growth in a cell viability assay.

[5] = tested on: EB-3; type: functional, cell-based;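 note: human EB-3 cells, growth inhibition read out via a cell viability assay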
Description: SANGER: Inhibition of human EB-3 cell growth in a cell viability assay.

[6] = tested on: EC-GI-10; type: functional, cell-based
Description: SANGER: Inhibition of human EC-GI-10 cell growth in a cell viability assay.

[7] = tested on: ES4; type: functional, cell-based;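 note: growth inhibition of human ES4 cells, read out by a cell viability assay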
Description: SANGER: Inhibition of human ES4 cell growth in a cell viability assay.

[8] = tested on: ES6; type: functional, cell-based;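 note: growth inhibition of human ES6 cells, read out with a cell viability assay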
Description: SANGER: Inhibition of human ES6 cell growth in a cell viability assay.

[9] = tested on: ETK-1; type: functional, cell-based;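 note: growth inhibition of human ETK-1 cells, read out with a cell viability assay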
Description: SANGER: Inhibition of human ETK-1 cell growth in a cell viability assay.

[10] = tested on: EW-11; type: functional, cell-based;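 note: growth inhibition of human EW-11 cells, measured with a cell viability assay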
Description: SANGER: Inhibition of human EW-11 cell growth in a cell viability assay.

[11] = tested on: EW-13; type: functional, cell-based;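 note: growth inhibition of EW-13 cells, read out with a cell viability assay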
Description: SANGER: Inhibition of human EW-13 cell growth in a cell viability assay.

[12] = tested on: EW-16; type: functional, cell-based;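 note: growth inhibition of human EW-16 cells, read out as cell viability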
Description: SANGER: Inhibition of human EW-16 cell growth in a cell viability assay.

[13] = tested on: EW-24; type: functional, cell-based;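 note: human EW-24 cancer cell line, growth inhibition read out via a cell viability assay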
Description: SANGER: Inhibition of human EW-24 cell growth in a cell viability assay.

[14] = tested on: EW-3; type: functional, cell-based;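 note: cell viability assay read-out, IC50 reflects inhibition of growth of the EW-3 cells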
Description: SANGER: Inhibition of human EW-3 cell growth in a cell viability assay.

[15] = tested on: FTC-133; type: functional, cell-based
[16] = tested on: GI-1; type: functional, cell-based;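 note: growth inhibition of human GI-1 cells, measured with a cell viability readout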
Description: SANGER: Inhibition of human GI-1 cell growth in a cell viability assay.

[17] = tested on: HCE-T; type: functional, cell-based;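 note: cell viability assay read-out, reporting inhibition of HCE-T cell growth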
Description: SANGER: Inhibition of human HCE-T cell growth in a cell viability assay.

[18] = tested on: HEL; type: functional, cell-based;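 note: growth inhibition of HEL cells, read out with a cell viability assay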
Description: SANGER: Inhibition of human HEL cell growth in a cell viability assay.

[19] = tested on: HT1197; type: functional, cell-based, HT-1197
Description: SANGER: Inhibition of human HT-1197 cell growth in a cell viability assay.

[20] = tested on: KE-37; type: functional, cell-based;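 note: growth inhibition of KE-37 cells, read out with a cell viability assay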
Description: SANGER: Inhibition of human KE-37 cell growth in a cell viability assay.

[21] = tested on: KURAMOCHI; type: functional, cell-based;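 note: growth inhibition of KURAMOCHI cells, read out with a cell viability assay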
Description: SANGER: Inhibition of human KURAMOCHI cell growth in a cell viability assay.

[22] = tested on: KYSE-150 cell line; type: functional, cell-based;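 note: growth inhibition of human KYSE-150 cells, read out with a cell viability assay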
Description: SANGER: Inhibition of human KYSE-150 cell growth in a cell viability assay.

[23] = tested on: LB373-MEL-D; type: functional, cell-based;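 note: growth inhibition of the cell line, read out in a cell viability assay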
Description: SANGER: Inhibition of human LB373-MEL-D cell growth in a cell viability assay.

[24] = tested on: LNCaP-Clone-FGC; type: functional, cell-based
Description: SANGER: Inhibition of human LNCaP-Clone-FGC cell growth in a cell viability assay.

[25] = tested on: LS-123; type: functional, cell-based
Description: SANGER: Inhibition of human LS-123 cell growth in a cell viability assay.

[26] = tested on: LS-513; type: functional, cell-based
Description: SANGER: Inhibition of human LS-513 cell growth in a cell viability assay.

[27] = tested on: LU-139; type: functional, cell-based
Description: SANGER: Inhibition of human LU-139 cell growth in a cell viability assay.

[28] = tested on: MFH-ino; type: functional, cell-based;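 note: growth inhibition of human MFH-ino cells, read out by a cell viability assay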
Description: SANGER: Inhibition of human MFH-ino cell growth in a cell viability assay.

[29] = tested on: MIA PaCa-2; type: functional, cell-based;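 note: growth inhibition of MIA PaCa-2 cells, read out with a cell viability assay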
Description: SANGER: Inhibition of human MIA-PaCa-2 cell growth in a cell viability assay.

[30] = tested on: MKN-1; type: functional, cell-based;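 note: growth inhibition of human MKN1 cells, read out by a cell viability measurement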
Description: SANGER: Inhibition of human MKN1 cell growth in a cell viability assay.

[31] = tested on: ML-2; type: functional, cell-based;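 note: growth inhibition of ML-2 cells, measured with a cell viability readout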
Description: SANGER: Inhibition of human ML-2 cell growth in a cell viability assay.

[32] = tested on: MN-60; type: functional, cell-based;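 note: growth inhibition of the MN-60 cell line, determined with a cell viability assay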
Description: SANGER: Inhibition of human MN-60 cell growth in a cell viability assay.

[33] = tested on: MPP-89; type: functional, cell-based;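 note: growth inhibition of human MPP-89 cells, read out with a cell viability assay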
Description: SANGER: Inhibition of human MPP-89 cell growth in a cell viability assay.

[34] = tested on: MZ1-PC; type: functional, cell-based;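 note: cell viability assay measuring growth inhibition of human MZ1-PC cells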
Description: SANGER: Inhibition of human MZ1-PC cell growth in a cell viability assay.

[35] = tested on: MeWo; type: functional, cell-based;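 note: growth inhibition of MeWo cells, determined by a cell viability readout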
Description: SANGER: Inhibition of human Mewo cell growth in a cell viability assay.

[36] = tested on: NB5; type: functional, cell-based;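 note: growth inhibition of NB5 cells, read out as cell viability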
Description: SANGER: Inhibition of human NB5 cell growth in a cell viability assay.

[37] = tested on: NCI-H1299; type: functional, cell-based;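 note: growth inhibition of human NCI-H1299 cells, read out by a cell viability assay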
Description: SANGER: Inhibition of human NCI-H1299 cell growth in a cell viability assay.

[38] = tested on: NCI-H1304; type: functional, cell-based;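 note: growth inhibition of the cancer cell line, measured in a cell viability assay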
Description: SANGER: Inhibition of human NCI-H1304 cell growth in a cell viability assay.

[39] = tested on: NCI-H1648; type: functional, cell-based;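 note: cell viability assay measuring inhibition of NCI-H1648 cell growth, from the Sanger screening data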
Description: SANGER: Inhibition of human NCI-H1648 cell growth in a cell viability assay.

[40] = tested on: NCI-H446; type: functional, cell-based;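 note: growth inhibition of NCI-H446 cells determined by a cell viability assay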
Description: SANGER: Inhibition of human NCI-H446 cell growth in a cell viability assay.

[41] = tested on: SNU-5; type: functional, cell-based;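 note: cell viability readout used to measure growth inhibition in human NCI-SNU-5 cells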
Description: SANGER: Inhibition of human NCI-SNU-5 cell growth in a cell viability assay.

[42] = tested on: NOMO-1; type: functional, cell-based;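 note: growth inhibition of human NOMO-1 cells measured by a cell viability assay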
Description: SANGER: Inhibition of human NOMO-1 cell growth in a cell viability assay.

[43] = tested on: OCI-AML2; type: functional, cell-based;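 note: growth inhibition of OCI-AML2 cells, read out with a cell viability assay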
Description: SANGER: Inhibition of human OCI-AML2 cell growth in a cell viability assay.

[44] = tested on: OMC-1; type: functional, cell-based;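 note: growth inhibition of the OMC-1 cell line, measured by a cell viability assay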
Description: SANGER: Inhibition of human OMC-1 cell growth in a cell viability assay.

[45] = tested on: OS-RC-2; type: functional, cell-based;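 note: growth inhibition of human OS-RC-2 cells, measured by a cell viability assay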
Description: SANGER: Inhibition of human OS-RC-2 cell growth in a cell viability assay.

[46] = tested on: OVCAR-5; type: functional, cell-based;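 note: growth inhibition of human OVCAR-5 cells, read out with a cell viability assay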
Description: SANGER: Inhibition of human OVCAR-5 cell growth in a cell viability assay.

[47] = tested on: RS4-11; type: functional, cell-based;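 note: growth inhibition of RS4-11 cells, read out by a cell viability assay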
Description: SANGER: Inhibition of human RS4-11 cell growth in a cell viability assay.

[48] = tested on: SF-268; type: functional, cell-based;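 note: growth inhibition of SF-268 cells determined with a cell viability assay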
Description: SANGER: Inhibition of human SF268 cell growth in a cell viability assay.

[49] = tested on: SK-MEL-1; type: functional, cell-based;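 note: growth inhibition of human SK-MEL-1 cells, read out by a cell viability assay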
Description: SANGER: Inhibition of human SK-MEL-1 cell growth in a cell viability assay.

[50] = tested on: SK-OV-3; type: functional, cell-based;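 note: growth inhibition of SK-OV-3 human cells, read out with a cell viability assay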
Description: SANGER: Inhibition of human SK-OV-3 cell growth in a cell viability assay.

[51] = tested on: SK-UT-1; type: functional, cell-based;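 note: growth inhibition of SK-UT-1 cells, measured by a cell viability assay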
Description: SANGER: Inhibition of human SK-UT-1 cell growth in a cell viability assay.

[52] = tested on: SW 954; type: functional, cell-based;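 note: growth inhibition of SW954 human cancer cells, read out as cell viability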
Description: SANGER: Inhibition of human SW954 cell growth in a cell viability assay.

[53] = tested on: A498; type: functional, cell-based;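 note: growth inhibition of human A498 cells, read out with a cell viability assay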
Description: SANGER: Inhibition of human A498 cell growth in a cell viability assay.

[54] = tested on: AGS; type: functional, cell-based;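 note: growth inhibition of AGS cells, determined with a cell viability assay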
Description: SANGER: Inhibition of human AGS cell growth in a cell viability assay.

[55] = tested on: ATN-1; type: functional, cell-based;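 note: growth inhibition of human ATN-1 cells, read out with a cell viability assay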
Description: SANGER: Inhibition of human ATN-1 cell growth in a cell viability assay.

[56] = tested on: BB49-HNC; type: functional, cell-based;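 note: cell viability assay read-out, reported as inhibition of BB49-HNC cell growth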
Description: SANGER: Inhibition of human BB49-HNC cell growth in a cell viability assay.

[57] = tested on: BFTC-909; type: functional, cell-based
Description: SANGER: Inhibition of human BFTC-909 cell growth in a cell viability assay.

[58] = tested on: BT-474; type: functional, cell-based
Description: SANGER: Inhibition of human BT-474 cell growth in a cell viability assay.

[59] = tested on: C2BBe1; type: functional, cell-based;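 note: growth inhibition of C2BBe1 cells, read out through a viability assay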
Description: SANGER: Inhibition of human C2BBe1 cell growth in a cell viability assay.

[60] = tested on: C8166; type: functional, cell-based;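 note: growth inhibition of human C8166 cells measured by a cell viability assay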
Description: SANGER: Inhibition of human C8166 cell growth in a cell viability assay.

[61] = tested on: TE-6; type: functional, cell-based;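 note: growth inhibition of TE-6 cells, read out with a cell viability assay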
Description: SANGER: Inhibition of human TE-6 cell growth in a cell viability assay.

[62] = tested on: TK-10; type: functional, cell-based
Description: SANGER: Inhibition of human TK10 cell growth in a cell viability assay.

[63] = tested on: VA-ES-BJ; type: functional, cell-based
Description: SANGER: Inhibition of human VA-ES-BJ cell growth in a cell viability assay.

[64] = tested on: no-10; type: functional, cell-based
Description: SANGER: Inhibition of human no-10 cell growth in a cell viability assay.

[65] = tested on: no-11; type: functional, cell-based
Description: SANGER: Inhibition of human no-11 cell growth in a cell viability assay.

[66] = tested on: CCRF-CEM; type: functional, cell-based
Description: SANGER: Inhibition of human CCRF-CEM cell growth in a cell viability assay.

C/C(O)=C(\C#N)C(=O)Nc1cc(Br)ccc1Br
IC50 [1]: > 16 µM
IC50 [2]: > 16 µM
IC50 [3]: > 16 µM
IC50 [4]: > 16 µM
IC50 [5]: > 16 µM
IC50 [6]: > 16 µM
IC50 [7]: > 16 µM
IC50 [8]: > 16 µM
IC50 [9]: > 16 µM
IC50 [10]: > 16 µM
IC50 [11]: > 16 µM
IC50 [12]: > 16 µM
IC50 [13]: > 16 µM
IC50 [14]: > 16 µM
IC50 [15]: > 16 µM
IC50 [16]: > 16 µM
IC50 [17]: > 16 µM
IC50 [18]: > 16 µM
IC50 [19]: > 16 µM
IC50 [20]: > 16 µM
IC50 [21]: > 16 µM
IC50 [22]: > 16 µM
IC50 [23]: > 16 µM
IC50 [24]: > 16 µM
IC50 [25]: > 16 µM
IC50 [26]: > 16 µM
IC50 [27]: > 16 µM
IC50 [28]: > 16 µM
IC50 [29]: > 16 µM
IC50 [30]: > 16 µM
IC50 [31]: > 16 µM
IC50 [32]: > 16 µM
IC50 [33]: > 16 µM
IC50 [34]: > 16 µM
IC50 [35]: > 16 µM
IC50 [36]: > 16 µM
IC50 [37]: > 16 µM
IC50 [38]: > 16 µM
IC50 [39]: > 16 µM
IC50 [40]: > 16 µM
IC50 [41]: > 16 µM
IC50 [42]: > 16 µM
IC50 [43]: > 16 µM
IC50 [44]: > 16 µM
IC50 [45]: > 16 µM
IC50 [46]: > 16 µM
IC50 [47]: > 16 µM
IC50 [48]: > 16 µM
IC50 [49]: > 16 µM
IC50 [50]: > 16 µM
IC50 [51]: > 16 µM
IC50 [52]: > 16 µM
IC50 [53]: > 16 µM
IC50 [54]: > 16 µM
IC50 [55]: > 16 µM
IC50 [56]: > 16 µM
IC50 [57]: > 16 µM
IC50 [58]: > 16 µM
IC50 [59]: > 16 µM
IC50 [60]: > 16 µM
IC50 [61]: > 16 µM
IC50 [62]: > 16 µM
IC50 [63]: > 16 µM
IC50 [64]: > 16 µM
IC50 [65]: > 16 µM
IC50 [66]: > 16 µM

CC(O)(CS(=O)(=O)c1ccc(F)cc1)C(=O)Nc1ccc(C#N)c(C(F)(F)F)c1 (configuration not stated) [BICALUTAMIDE]
IC50 [1]: > 1.02 µM
IC50 [2]: > 1.02 µM
IC50 [3]: > 1.02 µM
IC50 [4]: > 1.02 µM
IC50 [5]: > 1.02 µM
IC50 [6]: > 1.02 µM
IC50 [7]: > 1.02 µM
IC50 [8]: > 1.02 µM
IC50 [9]: > 1.02 µM
IC50 [10]: > 1.02 µM
IC50 [11]: > 1.02 µM
IC50 [12]: > 1.02 µM
IC50 [13]: > 1.02 µM
IC50 [14]: > 1.02 µM
IC50 [15]: > 1.02 µM
IC50 [16]: > 1.02 µM
IC50 [17]: > 1.02 µM
IC50 [18]: > 1.02 µM
IC50 [19]: > 1.02 µM
IC50 [20]: > 1.02 µM
IC50 [21]: > 1.02 µM
IC50 [22]: > 1.02 µM
IC50 [23]: > 1.02 µM
IC50 [24]: > 1.02 µM
IC50 [25]: > 1.02 µM
IC50 [26]: > 1.02 µM
IC50 [27]: > 1.02 µM
IC50 [28]: > 1.02 µM
IC50 [29]: > 1.02 µM
IC50 [30]: > 1.02 µM
IC50 [31]: > 1.02 µM
IC50 [32]: > 1.02 µM
IC50 [33]: > 1.02 µM
IC50 [34]: > 1.02 µM
IC50 [35]: > 1.02 µM
IC50 [36]: > 1.02 µM
IC50 [37]: > 1.02 µM
IC50 [38]: > 1.02 µM
IC50 [39]: > 1.02 µM
IC50 [40]: > 1.02 µM
IC50 [41]: > 1.02 µM
IC50 [42]: > 1.02 µM
IC50 [43]: > 1.02 µM
IC50 [44]: > 1.02 µM
IC50 [45]: > 1.02 µM
IC50 [46]: > 1.02 µM
IC50 [47]: > 1.02 µM
IC50 [48]: > 1.02 µM
IC50 [49]: > 1.02 µM
IC50 [50]: > 1.02 µM
IC50 [51]: > 1.02 µM
IC50 [52]: > 1.02 µM
IC50 [53]: > 1.02 µM
IC50 [54]: > 1.02 µM
IC50 [55]: > 1.02 µM
IC50 [56]: > 1.02 µM
IC50 [57]: > 1.02 µM
IC50 [58]: > 1.02 µM
IC50 [59]: > 1.02 µM
IC50 [60]: > 1.02 µM
IC50 [61]: > 1.02 µM
IC50 [62]: > 1.02 µM
IC50 [63]: > 1.02 µM
IC50 [64]: > 1.02 µM
IC50 [65]: > 1.02 µM
IC50 [66]: > 1.02 µM
